Consider 12 compounds from ChEMBL document CHEMBL1147464, “Synthesis and SAR of bis-statine based peptides as BACE 1 inhibitors” (Bioorg Med Chem Lett, 2004).

The experiment concerns the target Beta-secretase 1 (Homo sapiens, UniProt P56817). In words: Inhibition of human Beta-secretase 1.

Sequence of Beta-secretase 1 (P56817 whole entry): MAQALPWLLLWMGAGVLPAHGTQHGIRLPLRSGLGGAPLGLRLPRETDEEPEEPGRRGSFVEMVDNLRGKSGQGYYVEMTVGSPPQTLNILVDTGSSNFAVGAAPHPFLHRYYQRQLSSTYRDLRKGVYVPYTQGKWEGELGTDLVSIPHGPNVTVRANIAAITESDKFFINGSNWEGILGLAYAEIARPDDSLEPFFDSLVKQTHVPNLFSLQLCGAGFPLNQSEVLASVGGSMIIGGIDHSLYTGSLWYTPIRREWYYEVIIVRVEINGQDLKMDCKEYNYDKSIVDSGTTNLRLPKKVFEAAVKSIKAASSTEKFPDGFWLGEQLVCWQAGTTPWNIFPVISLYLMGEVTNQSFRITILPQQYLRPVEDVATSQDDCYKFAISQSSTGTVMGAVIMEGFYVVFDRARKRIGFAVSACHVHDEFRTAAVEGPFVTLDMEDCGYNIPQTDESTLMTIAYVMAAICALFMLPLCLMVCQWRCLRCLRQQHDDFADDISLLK

As a reminder, the IC50 is the point on the concentration scale where inhibition reaches its midpoint. Read a low IC50 as greater potency. With `CC(=O)NCC(=O)N[C@@H](Cc1ccccc1)[C@@H](O)CC(=O)N[C@@H](CC1CCCCC1)[C@@H](O)CC(=O)N[C@H](C(=O)NCc1ccc(C(=O)O)cc1)C(C)C`, the IC50 worked out at 9000 nM. In other words, the single-digit micromolar range. The value for `CC(C)[C@H](NC(=O)C[C@H](O)[C@H](CC1CCCCC1)NC(=O)C[C@H](O)[C@H](Cc1ccccc1)NC(=O)[C@@H]1CCCN1)C(=O)NCc1ccc(C(=O)O)cc1` was 1300 nM; that for `CCC(C)C[C@H](NC(=O)[C@H](CC(C)C)NC(C)=O)[C@@H](O)CC(=O)NC(CC[S+](C)[O-])[C@@H](O)CC(=O)N[C@H](C(=O)NCc1ccc(C(=O)O)cc1)C(C)C` (some centres not stated) was 34000 nM. The value for `CCC(C)C[C@H](NC(=O)C[C@H](O)[C@H](Cc1ccccc1)NC(=O)[C@H](CC(C)C)NC(C)=O)[C@@H](O)CC(=O)N[C@H](C(=O)NCc1ccc(C(=O)O)cc1)C(C)C` (some centres not stated) was 650 nM; that for `CCC(C)C[C@H](NC(=O)[C@H](CC(C)C)NC(C)=O)[C@@H](O)CC(=O)NC(CCSC)[C@@H](O)CC(=O)N[C@H](C(=O)NCc1ccc(C(=O)O)cc1)C(C)C` (some centres not stated) was 460 nM.

With `CC(=O)N[C@@H](CCC(=O)O)C(=O)N[C@@H](Cc1ccccc1)[C@@H](O)CC(=O)N[C@@H](CC1CCCCC1)[C@@H](O)CC(=O)N[C@H](C(=O)NCc1ccc(C(=O)O)cc1)C(C)C`, the IC50 is 42000 nM.

As to `CC(C)[C@H](NC(=O)C[C@H](O)[C@H](CC1CCCCC1)NC(=O)C[C@H](O)[C@H](Cc1ccccc1)NC(=O)OC(C)(C)C)C(=O)NCc1ccc(C(=O)O)cc1`, the IC50 is greater than 100000 nM. Consider `CC(C)[C@H](NC(=O)C[C@H](O)[C@H](CC1CCCCC1)NC(=O)C[C@H](O)[C@@H](N)Cc1ccccc1)C(=O)NCc1ccc(C(=O)O)cc1`, for which the IC50 was greater than 100000 nM.

Compound `CCC(C)C[C@H](NC(=O)[C@H](CC(C)C)NC(C)=O)[C@@H](O)CC(=O)N[C@@H](Cc1ccccc1)[C@@H](O)CC(=O)N[C@H](C(=O)NCc1ccc(C(=O)O)cc1)C(C)C` (some centres not stated) gave an IC50 of 21 nM. Compound `CC(=O)N[C@@H](Cc1ccccc1)C(=O)N[C@@H](Cc1ccccc1)[C@@H](O)CC(=O)N[C@@H](CC1CCCCC1)[C@@H](O)CC(=O)N[C@H](C(=O)NCc1ccc(C(=O)O)cc1)C(C)C` gave an IC50 of 5600 nM. Compound `CC(=O)N[C@@H](CC(C)C)C(=O)N[C@@H](Cc1ccccc1)[C@@H](O)CC(=O)N[C@@H](CC1CCCCC1)[C@@H](O)CC(=O)N[C@H](C(=O)NCc1ccc(C(=O)O)cc1)C(C)C` (stereo in doubt; 13) came in with an IC50 of 50 nM. Consider `CC(=O)N[C@@H](CC(C)C)C(=O)N[C@@H](Cc1ccccc1)[C@@H](O)CC(=O)N[C@@H](CC1CCCCC1)[C@@H](O)CC(=O)N[C@H](C(=O)NCc1ccc(C(=O)O)cc1)C(C)C` (stereo in doubt; 15), for which the IC50 came out at 670 nM. Compared with the last compound, the IC50 is about 13-fold higher.
